This is an account of results in PubChem BioAssay (NCI).

Where “and” joins values, the source holds several entries; their conditions need not be identical. Identical values can stand only once.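 48-hour exposure; five concentrations; linearly interpolated endpoints. GI50 = concentration required for 50% inhibition of growth. The concentration for full growth arrest is given as TGI.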 Where a SMILES comes first, the peptide text is derived from it. [ ]: non-standard residue; d: D form. Phe(ol) = N[C@H](CO)Cc1ccccc1; Aib = CC(C)(N)C(=O)O

The test concerns MDA-MB-468 breast. As to the kind of experiment: NCI tumour cell line growth inhibition, 48 h.

Take `COc1cc(OC)c(/C=C/S(=O)(=O)Cc2ccc(OC)c(N)n2)c(OC)c1`: the GI50 is < 0.01 µM and the TGI was > 100 µM.

For `Cc1ccc(C)c(N2CCN(c3ccncc3N)CC2)c1`, the GI50 is 3.4 µM and the TGI came out at 18 µM.

Take `CO/N=C1\CCc2c(sc(NC(=O)c3cccc(C(F)(F)F)c3)c2C(N)=O)C1`: the GI50 is 1.5 µM and the TGI is 5.91 µM.

In the case of `O=C(NOCCO)c1ccc2cncn2c1Nc1ccc(I)cc1F`, the GI50 was > 10 µM and 22.3 µM; the TGI is > 100 µM.

With `COc1cc(/C=N/NC(=O)c2cnn3c2NC(c2ccccc2)C3)ccc1OCc1ccccc1` (configuration not stated), the GI50 is 0.318 µM and the TGI came out at 2.16 µM.

Turning to `N#Cc1cnn(C(=O)c2nn(-c3ccc(Cl)cc3)cc2O)c1N`, the GI50 was 0.948 µM and the TGI came out at 15.1 µM.

For the molecule `CC[C@H](C)[C@H](NC(=O)CN(C)C)C(=O)N(C)[C@H](C[C@@H](OC(C)=O)c1nc(C(=O)NC23C4C5C2C2C3C4C52C(=O)OC)cs1)C(C)C` (some centres not stated), the GI50 was 0.147 µM and the TGI was > 33.2 µM.

As for `COc1ccc(/C(=C(\c2ccccc2)[N+](=O)[O-])c2ccc(OCCN3CCCC3)cc2)cc1`, the GI50 was 1.75 µM and the TGI worked out at 4.27 µM.

`N#Cc1ccc2c(-c3ccnc(NC4CC4)n3)c(-c3ccc(F)cc3)nn2c1`: the GI50 is > 24.2 µM and the TGI was > 25 µM.

Turning to `ClC/C=C/CSc1ncnc2nc[nH]c12`, the GI50 was > 100 µM and the TGI was > 100 µM.

For the molecule `CC1CCc2c(C(=O)Nc3ncc(Cc4cccc([N+](=O)[O-])c4)s3)csc2C1` (configuration not stated), the GI50 is 0.345 µM and the TGI was > 100 µM.

With `COc1ccc([C@@H]2[C@@H](Cl)C(=O)N2c2cc(OC)c(OC)c(OC)c2)cc1C`, the GI50 is 0.0414 µM and the TGI was > 100 µM.

Consider `CNC(=O)c1sc(-n2cnc3cc(OC)c(OC)cc32)cc1OCc1ccccc1C(F)(F)F`, for which the GI50 was > 19 µM and the TGI was > 25 µM.

Consider `Oc1ccccc1/C=N\NC(=S)Nc1ccc(F)cc1`, for which the GI50 is 2.53 µM and the TGI was found to be 26.5 µM.

Consider `CC(C)(C)n1cc(-c2ccnc(NCCCNS(=O)(=O)c3cccc4ccccc34)c2)c(-c2cccc(O)c2)n1`, for which the GI50 is 2.04 µM and the TGI is 5.39 µM.

Turning to `NS(=O)(=O)c1cccc(Nc2cc(-c3ccc(F)cc3)[nH]n2)c1`, the GI50 was > 23.6 µM and the TGI is > 25 µM.

As to `COc1cccc(/C=C\C(=O)c2ccccc2)c1`, the GI50 is 2.14 µM and the TGI turned out to be 6.49 µM.

Turning to `Nc1nc(SCC#CCCl)c2[nH]cnc2n1`, the GI50 was 1.88 µM and the TGI was determined as 6.38 µM.

On to `COc1cc(F)c(F)c(Nc2ccc(I)cc2F)c1NS(=O)(=O)C1(CC(O)CO)CC1` (configuration not stated), for which the GI50 is 14.4 µM and the TGI was determined as 47.7 µM.

As to `CCCCCn1sc(=O)n(Cc2ccc(CNC(=O)C(C)c3ccc(CC(C)C)cc3)cc2)c1=O` (configuration not stated), the GI50 was 0.945 µM and the TGI was determined as 2.45 µM.

In the case of `C#CCn1cccc1CNc1ccc(OC)cc1`, the GI50 was 14.2 µM and the TGI turned out to be 60.5 µM.

`O=C(/C=C/c1ccco1)Nc1ncc(Cc2cc(Cl)ccc2Cl)s1`: the GI50 was 0.15 µM and the TGI is > 46 µM.

For `CC(=O)NC(C)(C)C(=O)N1CCC[C@H]1C(=O)NC(C)(C)C(=O)N[C@@H](C)C(=O)NC(C)(C)C(=O)NC(C)(C)C(=O)N[C@@H](CCC(N)=O)C(=O)NC(C)(C)C(=O)N[C@H](C(=O)NC(C)(C)C(=O)NCC(=O)N[C@@H](CC(C)C)C(=O)NC(C)(C)C(=O)N1CCC[C@H]1C(=O)N[C@H](C(=O)NC(C)(C)C(=O)NC(C)(C)C(=O)N[C@@H](CCC(N)=O)C(=O)N[C@@H](CCC(N)=O)C(=O)N[C@H](CO)Cc1ccccc1)C(C)C)C(C)C` (Ac-[Aib]P[Aib]A[Aib][Aib]Q[Aib]V[Aib]GL[Aib]PV[Aib][Aib]QQ[Phe(ol)]), the GI50 is 0.209 µM and the TGI was determined as 2.36 µM.

For the molecule `Cc1cnc(C(=O)Nc2nc3ccc(S(=O)(=O)Nc4ccc(C(C)(C)C)cc4)cc3[nH]2)cn1`, the GI50 is 0.27 µM and the TGI stood at 1.73 µM.

Consider `Cc1cc2nc3c4cc(C#N)ccc4n(CCN(C)C)c3nc2cc1C`, for which the GI50 is 1.33 µM and the TGI was determined as 3.91 µM.

With `O=C(CC1(O)C(=O)Nc2ccc(Cl)cc21)c1ccc(C(=O)NCC2CCC3(CC2)OOC2(CCCCC2)OO3)cc1` (configuration not stated), the GI50 was 2.12 µM and the TGI is 5.66 µM.

Take `CCNC(=O)N1CCc2cc(OC)c(OCCc3ccc(OC)cc3)cc2C1c1ccc([N+](=O)[O-])cc1C` (configuration not stated): the GI50 is 1.37 µM and the TGI turned out to be 4.78 µM.

`COC(=O)[C@]12CC[C@@H](C)[C@H](C)[C@@H]1C1=CC[C@@H]3[C@@]4(C)C[C@@H](OC(C)=O)[C@H](OC(C)=O)[C@@](C)(COC(C)=O)[C@@H]4[C@H](O)C[C@@]3(C)[C@]1(C)CC2`: the GI50 is 0.832 µM and the TGI was found to be 46 µM.

Regarding `COc1ccc(/C=C\c2cc(OC)c(OC)c(OC)c2)cc1NC(=O)/C=C/c1cc(OC)c(OC)c(OC)c1`, the GI50 is 1.82 µM and the TGI worked out at 6.66 µM.

In the case of `COc1cc([C@@H]2c3cc4c(cc3[C@@H](OC3OC5COC(C)OC5C(O)C3O)[C@H]3COC(=O)[C@H]23)OCO4)cc(OC)c1O` (some centres not stated), the GI50 is 2.73 µM and 2.12 µM; the TGI is 22.3 µM and 18.7 µM.

For `O=C1c2ccc3c4c(ccc(c24)C(=O)N1CCCCO)C(=O)N(CCCCO)C3=O`, the GI50 is 1.21 µM and the TGI worked out at 3.22 µM.

Turning to `C#Cc1nc(C2=C(C)/C(=N/OCc3ccccc3)CC2)cs1`, the GI50 was 17.8 µM and the TGI was 94.7 µM.

Consider `O=C(NCCN1CCOCC1)c1cc2c(Oc3ccc(NC(=O)C4(C(=O)Nc5ccc(F)cc5)CC4)cc3)ccnc2[nH]1`, for which the GI50 was 2.31 µM and the TGI is 13.6 µM.

In the case of `CC(Nc1c(C#N)cnc2ccc(-c3cncc(O)c3)cc12)c1ccccc1` (configuration not stated), the GI50 is 0.913 µM and the TGI was determined as 3.43 µM.

With `CN1CCN(Cc2ccc(NC(=O)c3cncc(C#Cc4c(N)ncc5ccccc45)c3)cc2C(F)(F)F)CC1`, the GI50 was 0.818 µM and the TGI was 1.63 µM.

For `CC/C(=C/c1ccc(OC)cc1)[N+](=O)[O-]`, the GI50 is 1.83 µM and the TGI was found to be 3.63 µM.

For the molecule `COC(=O)c1sc(-n2cnc3cc(OC)c(OC)cc32)cc1OCc1ccccc1C(F)(F)F`, the GI50 was 3.72 µM and the TGI is > 25 µM.

Turning to `O=C1c2ccccc2-c2cn(Cc3ccccc3)c3cccc(c23)C1c1cccnc1` (configuration not stated), the GI50 is 2 µM and the TGI turned out to be 37.6 µM.

In the case of `COc1cc(C(=O)/C=C/c2c[nH]c3ccccc23)cc(OC)c1OC`, the GI50 was 0.0857 µM and the TGI stood at 1.61 µM.

As to `COc1cc(/C=N\Nc2ccccc2)ccc1OC(=O)c1ccccc1`, the GI50 is 2.74 µM and the TGI worked out at 34.8 µM.

As for `CCCCCCCCCC(=O)Oc1ccc(/C(=C(/C)c2ccccc2)c2ccc(OCCN3CCCC3)cc2)cc1`, the GI50 was 7.25 µM and the TGI amounted to 14.7 µM.
